# Data reported in patent US12440527B2, “Organic sol-gel nano-composition from panax notoginseng, rutin, ginkgo biloba effective in enhancing cerebral and cardiovascular protection and method of producing thereof” (priority 2020, dated 2025).
# Tests used:
# Format in all cases: in vivo
# [1] = system: white mice injected with nikethamide; experiment: Anticonvulsant effect after nikethamide injection
# Method: (§1) In the test, the white mice were randomly divided into 4 batches, each batch having 10 animals: Batch 1 (biological control) was subjected to oral administration of 20 mL/kg/day distilled water; batch 2 (positive control) was subjected to oral administration of 2.4 mg/kg/day diazepam; batch 3 was subjected to oral administration of the composition at dose of 0.96 pill/kg/day (equivalent to the clinical dose); batch 4 was subjected to oral administration of the composition at dose of 2.88 pill/kg/day (3 times as much as the clinical dose). After the mice were injected with nikethamide, the time of convulsion onset and the death time of the mice were taken.
# white mice = experiment: Sedative effect on the advanced plus model (close/open branch)
# Method: as §1, with “dose).” for “dose). After the mice were injected with nikethamide, the time of convulsion onset and the death time of the mice were taken.”
# [2] = system: white mice injected with nitroglycerin (NTG), chronic migraine model; experiment: Vasomotor pain relieving effect on chronic migraine model (nitroglycerin injection, dolorimeter); conditions: oral 40 mg/kg propranolol, NTG 10 mg/kg
# Method: In the test, the white mice were randomly divided into 5 batches, each batch having 10 animals: Batch 1 (biological control) was subjected to oral administration of 0.2 ml/10 g water; batch 2 (model) injected 10 mg/kg with nitroglycerin (NTG) was subjected to oral administration of 0.2 mL/10 g water; batch 3 (positive control) injected with 10 mg/kg nitroglycerin was subjected to oral administration of 40 mg/kg propranolol; batch 4 injected with 10 mg/kg nitroglycerin was subjected to oral administration of the composition at dose of 0.96 pill/kg/day (equivalent to the clinical dose); batch 5 injected with 10 mg/kg nitroglycerin was subjected to oral administration of the composition at dose of 2.88 pill/kg/day (3 times as much as the clinical dose).
# [3] = After 7 days of oral administration of the drug, Diazepam at 2.4 mg/kg/day
# [4] = Before oral administration of the drug, Diazepam at 2.4 mg/kg/day batch
smiles,measurement,setting,value
"CN1C(=O)CN=C(c2ccccc2)c2cc(Cl)ccc21 [Diazepam, diazepam]",Effect on time of convulsion onset and death time vs model batch,"[1]; 2.4 mg/kg/day diazepam, after nikethamide injection",took effects in prolonging the time of convulsion onset and the death time
same,Death time of the mice after nikethamide injection,[1]; Diazepam at 2.4 mg/kg/day oral,14.91 ± 3.67 min
same,Time of convulsion onset,"[1]; Diazepam at 2.4 mg/kg/day oral, after nikethamide injection",2.08 ± 0.55 min
same,Avoidance rate at the open branch,white mice; [3],46.37 ± 9.21
same,Number of times of mouse introduction into the close branch,white mice; [3],6.40
same,Number of times of mouse introduction into the open branch,white mice; [3],6.90
same,Time of mouse introduction into the close branch,white mice; [3],121.20 s
same,Time of mouse introduction into the open branch,white mice; [3],150.10 s
same,Avoidance rate at the open branch,white mice; [4],69.21 ± 8.88
same,Number of times of mouse introduction into the close branch,white mice; [4],11.50
same,Number of times of mouse introduction into the open branch,white mice; [4],4.30
same,Time of mouse introduction into the close branch,white mice; [4],173.70 s
same,Time of mouse introduction into the open branch,white mice; [4],90.40 s
"CC(C)NCC(O)COc1cccc2ccccc12 (centres unmarked) [Propranolol, propranolol]",Pain-inducing force in the dolorimeter (baseline pain threshold),[2]; Day 3,7.6 ± 1.5 g
same,Pain-inducing force on the dolorimeter (pain threshold after treatment),[2]; Day 3,6.8 ± 1.2 g
same,Pain-inducing force in the dolorimeter (baseline pain threshold),[2]; Day 5,6.5 ± 1.1 g
same,Pain-inducing force on the dolorimeter (pain threshold after treatment),[2]; Day 5,7.0 ± 1.0 g
same,Pain-inducing force in the dolorimeter (baseline pain threshold),[2]; Day 7,6.4 ± 1.0 g
same,Pain-inducing force on the dolorimeter (pain threshold after treatment),[2]; Day 7,6.7 ± 0.5 g
same,Pain-inducing force in the dolorimeter (baseline pain threshold),[2]; Day 9,7.1 ± 0.9 g
same,Pain-inducing force on the dolorimeter (pain threshold after treatment),[2]; Day 9,6.7 ± 0.5 g
same,Pain-inducing force in the dolorimeter (baseline pain threshold),[2]; Day 11,7.1 ± 1.0 g
same,Pain-inducing force on the dolorimeter (pain threshold after treatment),[2]; Day 11,7.8 ± 0.7 g
